Data as given in patent US10058622B2, “PH-sensitive peptides and their nanoparticles for drug delivery” (THE TRUSTEES OF THE UNIVERSITY OF PENNSYLVANIA, priority 2013, dated 2018).
Where two headings read alike, the source gives them in different places. Each block holds one molecule with its values, some of them ahead of it.

How the values were obtained:
[1] = cited from earlier work
[2] = Solubility of hydrophobic drugs in water versus concentration in nanoparticles; format: physicochemical; conditions: nanoparticles of Example 9 / Example 10
[3] = tested on: HCC1806 tumor (triple-negative breast cancer); assay: Tumor growth in HCC1806 tumor inoculated mice; format: in vivo; conditions: 100 mg LND/kg in tris-glycine buffer, intraperitoneal injection
[4] = Solubility of peptides at pH 7.4 and 6.5 (Example 13); format: physicochemical
Description: Five pH sensitive peptides of the following sequences, […] (SEQ ID NO: 17), […] (SEQ ID NO: 18), […] (SEQ ID NO: 19), […] (SEQ ID NO: 20) and […] (SEQ ID NO: 8) were similarly synthesized by the method described in Example (1). Peptides […] (SEQ ID NO: 17) and […] (SEQ ID NO: 18) were soluble at both pH 7.4 and 6.5. Peptides […] (SEQ ID NO: 19) and […] (SEQ ID NO: 20) were insoluble at both pH 7.4 and 6.5, with […] (SEQ ID NO: 20) forming nanoparticles of about 80 nm. Peptide […] (SEQ ID NO: 8) was insoluble above about pH 6.7 forming nanoparticles of about 50 nm and soluble below about pH6.7; i.e., it undergoes a pH-induced transition at about pH6.7. Therefore, the pH ranges of the hydrophobic/hydrophilic transition and the corresponding soluble/insoluble transition of peptides and their nanoparticles may be adjusted by changing one or more features of the peptide, e.g., sequence and length, and the hydrophobic block and the functional block to which the peptide is conjugated.

[5] = Cytotoxicity by lactic dehydrogenase (LDH) assay; format: cell-based, human; conditions: human, SKOV3 cells, read-out: cell viability
Description: (§1) FIGS. 4A and 4B show lack of cytotoxicity of a pH sensitive peptide solution for SKOV3 cells.
(§2) Cytotoxicity, i.e., the effect of peptide on tumor cell viability, was determined using lactic dehydrogenase (LDH) assay. Cells (SKOV3 cells, a human carcinogenic cell line from ovarian cancer) were plated in 96-well plates (10,000 per well for SKOV3) and allowed to adhere overnight at 37° C. in a humidified atmosphere of 5% CO2. […] The medium was next removed, the LDH assay lysis solution was added, and the wells were kept at 37° C. for another 45 minutes. Finally, the LDH assay mixture was added and the wells were held at room temperature for still another 20-30 minutes before the absorbance was spectrophotometrically measured at a wavelength of 490 nm on a SpectraMax (Molecular Devices). […] This was confirmed by the spectrophotometric intensity of dead cells, shown in the lower panel, which was near zero, meaning it is indistinguishable from that of the control. Therefore, the peptide itself is non-toxic and biocompatible.

[6] = tested on: SKOV3 cells; assay: Cytotoxicity by lactic dehydrogenase (LDH) assay; format: cell-based, human; conditions: control set as zero
Description: as §1, §2

[7] = Solubility of peptide nanoparticles as a function of pH (Example 1, FIG. 1B); format: physicochemical; conditions: phosphate buffer solution
Description: A pH sensitive peptide (Ac-[…]-NH2) (SEQ ID NO: 9) was synthesized by the solid phase method. Amino acids blocked by the fluorinylmethyloxycarbonyl (FMOC) group were utilized to couple to a Rink amide resin. Piperideine, N-methylmorpholine (NMM), and hexafluorophosphate (HBTU) in dimethylformamide were used to remove the FMOC group and activate amino acids. The peptide was acetylated with acetic anhydride at the N-terminus and cleaved with trifluoroacetic acid/triisopropylsilane/water (95%/2.5%/2.5%). […] Such peptide spontaneously forms nanoparticles at pH 7.4. The solubility of nanoparticles was measured as a function of pH. […] Therefore, there is a sharp transition spanning over a pH interval of only 0.1. The increasing solubility at lower pH is believed to be due to the increasing protonation of the histidine group.

concentration of drug in pH-sensitive peptide nanoparticle preparation [2]: 1 mg/ml
Molecule: O=C(O)c1nn(Cc2ccc(Cl)cc2Cl)c2ccccc12 [LND, lonidamine]
solubility in water [1]: about 17 μg/ml
duration of tumor growth delay effect compared to control [3]: about 10 days

concentration of drug in pH-sensitive peptide nanoparticle preparation [2]: 1 mg/ml
Molecule: CC(=O)O[C@H]1C(=O)[C@@]2(C)[C@H]([C@H](OC(=O)c3ccccc3)[C@]3(O)C[C@H](OC(=O)[C@H](O)[C@@H](NC(=O)c4ccccc4)c4ccccc4)C(C)=C1C3(C)C)[C@]1(OC(C)=O)CO[C@@H]1C[C@@H]2O [paclitaxel]
solubility in water [1]: about 0.3 μg/ml

solubility of peptide ([4]; pH 6.5): insoluble
solubility of peptide ([4]; pH 7.4): insoluble
Molecule: Ac-GFFFHGFFFH-NH2

solubility of peptide ([4]; pH 6.5): insoluble
solubility of peptide ([4]; pH 7.4): insoluble
Molecule: Ac-GHFFHGFFFH-NH2

solubility of peptide ([4]; pH 6.5): soluble
solubility of peptide ([4]; pH 7.4): soluble
Molecule: Ac-GHFFHGHFFH-NH2

Molecule: Ac-HFFHGHFFHGHFFHGKK-NH2
viability at 3 h ([5]; pH 6.8, 3 hours with peptide then 24 hours): ~100%
viability at 3 h ([5]; pH 7.4, 3 hours with peptide then 24 hours): ~100%
spectrophotometric intensity of dead cells (LDH release) [6]: near zero
solubility of peptide and nanoparticle ([7]; above pH 7.2): completely insoluble
solubility of peptide and nanoparticle ([7]; at pH 7.0): mostly insoluble
solubility of peptide and nanoparticle ([7]; below pH 6.7): completely soluble
solubility of peptide and nanoparticle ([7]; below pH 6.9): mostly soluble
pH interval spanned by the sharp solubility transition [7]: 0.1
pH of sudden fall indicating dissolution of peptide construct from nanoparticle ([7]; FIG. 1B): 6.9

solubility of peptide ([4]; pH 6.5): soluble
solubility of peptide ([4]; pH 7.4): soluble
Molecule: Ac-KGGHFFHGHFFHGK-NH2
